Results as given in patent US8337835B2, “Use of an endogenous ligand for peroxisome proliferator activated receptor alpha to treat liver disorders” (priority 2009, dated 2012).

Tests used:
[1] = system: PPARα-dependent genes (ACO and CPT-1) after CEPT1 knockdown; assay: Rescue of ACO and CPT-1 expression in Hepa 1-6 cells treated with CEPT1 siRNA; assay type: cell-based, mouse; settings: 72 h CEPT1 siRNA, then 50 μM for 24 h
Protocol: The C57BL/6 mouse hepatoma cell line Hepa 1-6 (ATCC, CRL-1830) was expanded in DMEM with 10% fetal bovine serum. For experiments, cells were cultured to 50-60% confluence, washed twice with PBS, and the medium was changed to serum-free DMEM supplemented with the various types and concentrations of phosphatidylcholine (sonicated to homogeneity in PBS/1% ethanol/4% fatty acid-free BSA), Wy14,643 (dissolved in 80% PBS/20% DMSO), or vehicle-only solutions. 24 h later, cells were washed, RNA prepared, and ACO and CPT-1 expression levels were determined by quantitative RT-PCR (see FIG. 6). For siRNA experiments, 50-60% confluent cells were treated with siRNAs or their scrambled controls (all diluted in PBS) for 72 h. […]
(§1) Stealth™ siRNA oligonucleotides were used to inhibit the gene expression of mouse ChPT1 ([…]) (SEQ ID NO: 1) and CEPT1 ([…]) (SEQ ID NO: 2) were from Invitrogen (Carlsbad, Calif.). […] Expression of ACO and CPT-1 was also assessed 24 h after addition of 50 μM 16:0/18:1-GPC in a subset of Hepa 1-6 cells previously treated with CEPT1 siRNA. mRNA levels are normalized to control L32 ribosomal mRNA. […] FIGS. 6F-H show the binding of various peptide motifs to the purified PPARα (FIG. 6F), PPARδ (FIG. 6G), and PPARγ (FIG. 6H) LBD in the presence of 5 μM of the corresponding PPAR agonist or 16:0/18:1-GPC as measured by AlphaScreen assays. […]

[2] = system: PPARα target gene (ACO and CPT-1) expression; assay: PPARα target gene (ACO and CPT-1) expression by quantitative RT-PCR in Hepa 1-6 cells; assay type: cell-based; settings: Hepa 1-6 mouse hepatoma cells, 24 h, serum-free DMEM
Protocol: RT-PCR gene expression analysis and binding assays were employed to address this objective. Wy14,643, 16:0/18:1-GPC, and 18:1/16:0-GPC on PPARα target gene (ACO and CPT-1) expression was measured by quantitative RT-PCR in Hepa 1-6 cells treated for 24 h as in FIG. 6A. Results are mean±SEM of 9 separate experiments. *, P<0.05 compared to control (Ctrl, 80% PBS/20% DMSO).
The C57BL/6 mouse hepatoma cell line Hepa 1-6 (ATCC, CRL-1830) was expanded in DMEM with 10% fetal bovine serum. For experiments, cells were cultured to 50-60% confluence, washed twice with PBS, and the medium was changed to serum-free DMEM supplemented with the various types and concentrations of phosphatidylcholine (sonicated to homogeneity in PBS/1% ethanol/4% fatty acid-free BSA), Wy14,643 (dissolved in 80% PBS/20% DMSO), or vehicle-only solutions. 24 h later, cells were washed, RNA prepared, and ACO and CPT-1 expression levels were determined by quantitative RT-PCR (see FIG. 6). For siRNA experiments, 50-60% confluent cells were treated with siRNAs or their scrambled controls (all diluted in PBS) for 72 h. Following the 72 h siRNA treatment, another set of cells received 16:0/18:1-GPC (using a concentration based on dose-response experiments) for an additional 24 h. Stealth™ siRNA oligonucleotides were used to inhibit the gene expression of mouse ChPT1 ([…]) (SEQ ID NO: 1) and CEPT1 ([…]) (SEQ ID NO: 2) were from Invitrogen (Carlsbad, Calif.).
Total RNA was extracted from Hepa 1-6 cells and liver using Trizol (Invitrogen) and treated with DNase I (RNase-free, Roche Molecular Biochemicals). Reverse transcription to cDNA and real-time quantitative PCR were performed using previously published procedures and primer-probe sequences for ACO and CPT-1 (Chakravarthy et al., 2005). […] Relative mRNA levels were calculated using both the comparative CT and standard curve methods normalized to ribosomal protein L32, an invariant internal control. […]

[3] = biological target: T1, PPARα ligand binding domain (LBD) (Homo sapiens, UniProt Q07869); assay: ALPHASCREEN binding assay, PPARα ligand binding domain
T1 construct: 6xHis; made in house
T1 sequence (Q07869 239-466 limits assumed): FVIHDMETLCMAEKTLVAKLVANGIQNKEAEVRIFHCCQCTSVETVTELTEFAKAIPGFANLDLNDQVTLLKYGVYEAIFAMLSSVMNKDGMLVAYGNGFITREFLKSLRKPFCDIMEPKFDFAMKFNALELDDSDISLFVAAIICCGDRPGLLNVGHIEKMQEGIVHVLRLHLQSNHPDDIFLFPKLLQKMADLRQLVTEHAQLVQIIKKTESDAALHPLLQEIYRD
Protocol: Binding of 16:0/18:1-GPC and known agonists to the ligand binding domain (LBD) of PPARα in the presence of various peptide motifs was determined by ALPHASCREEN™ assay (Proc Natl Acad Sci USA 105, pp. 5034-5039, 2008). Experiments used 100 nM receptor LBD, purified as 6× His tag fusion proteins (Mol Cell 17, pp. 491-502, 2005), and 20 nM of N-terminal biotinylated CBP1 peptide or other coactivator peptides in the presence of 5 μg/ml donor and acceptor beads in 50 mM MOPS (pH 7.4), 100 mM NaCl, and 0.1 mg/ml BSA for 90 min at 25° C. Signals were generated in the absence or the presence of ligand. Identical experiments were performed using the PPARδ and PPARγ LBDs.
as §1

Structure (SMILES): CCCCCCCC/C=C\CCCCCCCC(=O)O[C@H](COC(=O)CCCCCCCCCCCCCCC)COP(=O)([O-])OCC[N+](C)(C)C [16:0/18:1-GPC, 1-palmitoyl-2-oleoyl-sn-glycerol-3-phosphocholine]
- rescue of decreased PPARα-dependent genes (ACO, CPT-1) after CEPT1 knockdown [1]: rescued
- expression of PPARα-dependent genes ACO and CPT-I [2]: induces PPARα-dependent gene expression
- expression of PPARα-dependent genes ACO and CPT-I ([2]; listed as 1-palmitoyl-2-oleoyl-sn-glycerol-3-phosphocholine): increased expression of both ACO and CPT-I to a similar degree as equimolar amounts of the known PPARα activator Wy14,643
- binding affinity to PPARα compared with Wy14,643 [3]: binds with sufficient affinity to PPARα comparable to Wy14,643
